These results are taken from PubChem BioAssay (NCI).

Structures are written as SMILES. Where “and” joins values, the source holds several entries; their conditions need not be identical. Equal values may be shown once.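 Each compound was tested at five concentrations against cells in 96-well plates for 48 hours. Abbreviation: GI50, concentration required for 50% inhibition of growth. TGI: total growth inhibition.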

Holding throughout (assay): DTP human tumour cell line panel, 48 h
Assay [1] concerns A549 NSCLC.
Assay [2] concerns HCC-2998 colon.
Assay [3] has as its system HOP-62 NSCLC.
Assay [4] has as its system HOP-92 NSCLC.
The subject of assay [5] is OVCAR-4 ovarian.
Assay [6] has as its system SF-539 CNS.
In assay [7] the test system is SK-MEL-5 melanoma.
For assay [8], the system named is UACC-257 melanoma.
Assay [9] has as its system DU-145 prostate.

As to `COc1cccc(C=NC23CC4CC(CC(C4)C2)C3)c1`, the TGI in [1], in [2], in assay [3], in assay [4], in assay [5] and in assay [6] was over 100 µM in each case. The total growth inhibition concentration (TGI) in [7] and in [8] was over 100 µM throughout.

With `CCOC(=N)CC(=O)Nc1ccccc1CC`, the TGI in [1], in assay [2], in assay [3], in assay [5], in assay [6] and in assay [7] was over 100 µM throughout. In addition, the TGI in assay [8] was over 100 µM.

In the case of `Cc1cc(O)c2c(c1)OC1(C)CCC3C(C)(C)CCCC34COC2C14` (stereo not drawn), the TGI in assay [1] amounted to 28.6 µM; in assay [2], 28.1 µM; in [3], 28.5 µM; in [5], 33.5 µM; in assay [6], 23.8 µM; in assay [7], 27.5 µM. The same molecule returned a TGI in assay [8] of 28.8 µM.

Turning to `CNC(=O)NCCCCC(NC(C)=O)C(=O)NCc1ccccc1` (stereo not drawn), the TGI in assay [1], in assay [2], in [3], in [4], in assay [5] and in [6] was over 100 µM in each case. For the same molecule, the TGI in [7] and in assay [8] was over 100 µM in each case.

Turning to `O=C(Nc1ccccc1)N1C(c2ccccc2)=N[C@@H](c2ccccc2)[C@@H]1c1ccccc1`, the total growth inhibition concentration (TGI) in assay [1] was 52 µM; in assay [2], 35.2 µM; in [3], 47.9 µM; in [4], 53.3 µM; in [5] it was 44.6 µM; in [6], 33.7 µM. In addition, the total growth inhibition concentration (TGI) in assay [7] stood at 26.8 µM; in [8] it was 35.3 µM.

For `COc1ccccc1/C=C(\NC(=O)c1ccccc1)c1nc2ccccc2[nH]1`, the total growth inhibition concentration (TGI) in [1] is over 100 µM; in assay [4] it was 72.5 µM; in assay [5] it was over 100 µM; in assay [6] it was over 100 µM; in [7] it was 48 µM; in assay [8] it was over 100 µM.

On to `Cc1cccc(C=NC23CC4CC(CC(C4)C2)C3)c1`, for which the concentration for total growth inhibition (TGI) in [1], in [2], in assay [3], in assay [4], in assay [5] and in assay [6] was over 100 µM each time. The TGI in assay [7] and in [8] was over 100 µM each time.

For `Cc1c(-c2ccc(-c3ccccc3F)cc2)nc2ccc(F)cc2c1C(=O)O`, the GI50 in assay [1] is 0.384 µM and 0.679 µM; in assay [9] it was 0.867 µM and 1.18 µM; in assay [2] it was 19.7 µM and 55.9 µM; in [3], 0.5 µM; in assay [4] it was 27.7 µM; in assay [5], 41 µM and 81.6 µM. Also, the GI50 in assay [6] is 0.0959 µM and 0.5 µM; in [7], 2.37 µM. For the same molecule, the total growth inhibition concentration (TGI) in assay [1] was 78 µM and 99.3 µM and 149 µM; in [9], 119 µM and 343 µM; in assay [2], 115 µM and 129 µM; in [3], 35 µM and 199 µM; in [4], 88.6 µM; in assay [5] it was 88.7 µM and 524 µM. Also, the TGI was 25.6 µM and 110 µM and 29.9 µM in [6]; 58.6 µM and 186 µM in assay [7]; 155 µM and 236 µM in assay [8].

Regarding `C/C(=C\c1ccccc1)C(=O)c1c(C)cc(C)cc1C`, the total growth inhibition concentration (TGI) in assay [1], in [3], in assay [4], in assay [5], in assay [6] and in assay [7] was over 100 µM each time. This molecule displayed a concentration for total growth inhibition (TGI) in assay [8] of over 100 µM.

Take `O=C1N=C2N=C(c3ccc(Cl)cc3)N(c3ccc(Cl)cc3)N2Sc2ccccc21`: the TGI in assay [1], in assay [2], in assay [3], in [4], in assay [5] and in [6] was over 100 µM in each case. The concentration for total growth inhibition (TGI) in assay [7] and in [8] was over 100 µM throughout.

On to `O=C(C#Cc1ccccc1)NC/C=C/c1ccccc1`, for which the total growth inhibition concentration (TGI) in assay [1] was over 100 µM; in assay [2], 99.2 µM; in assay [3], 52.5 µM; in [4], 57.2 µM; in assay [5], over 100 µM; in assay [6], over 100 µM. Further, the TGI in [7] and in assay [8] was over 100 µM in each case.

Turning to `C[C@]12CC[C@H](OC(=O)Nc3ccccc3)CC1=CC[C@@H]1C2CC[C@]2(C)/C(=N/OC(=O)Nc3ccccc3)CCC12` (stereo partly drawn), the TGI was over 100 µM in assay [1]; over 100 µM in [2]; 72.1 µM in assay [4]; over 100 µM in assay [5]; over 100 µM in [6]; over 100 µM in [7].

Consider `O=C(Cc1nc2ccccc2s1)C(=O)Nc1cccc(C(F)(F)F)c1`, for which the total growth inhibition concentration (TGI) in assay [1], in assay [2], in assay [3], in [4], in [5] and in assay [6] was over 100 µM each time. The TGI in assay [7] and in [8] was over 100 µM throughout.

With `COC(OC)c1cccnc1C`, the TGI in [1], in [3], in assay [4], in assay [5], in assay [6] and in [7] was over 100 µM in each case. This molecule came in with a TGI in assay [8] of over 100 µM.

`O=C1C(=O)N(c2cc(Cl)ccc2Cl)C(=O)C(=O)C1c1nc2ccccc2s1`: the TGI in assay [1], in [3], in assay [4], in assay [5], in assay [6] and in assay [7] was over 100 µM in each case. The molecule further returned a TGI in [8] of over 100 µM.

As to `c1ccc(N2CCN(CCN3CCc4c([nH]c5ccccc45)C3c3cccnc3)CC2)cc1` (stereo not drawn), the concentration for total growth inhibition (TGI) in assay [1] is over 100 µM; in assay [2] it was over 100 µM; in [3], over 100 µM; in assay [4] it was 92.5 µM; in assay [5], over 100 µM; in assay [6], over 100 µM. Further, the TGI in [7] and in assay [8] was over 100 µM throughout.

A word on the TGI: it is the concentration giving total growth inhibition. The low end stands for greater sensitivity of the cells, the high end for lower sensitivity of the cells. Broadly, the GI50 is the concentration giving 50% growth inhibition.
